Values joined by “and” are separate entries in the source; they are usually repeats but may differ in a detail not shown here. Equal values may be shown once. Active and inactive are the calls of the source. Some results are limits rather than exact numbers.

Assay [1] is described as follows: inhibitors of SNCA 5'UTR-driven reporter translation, confirmation, H4 neuroglioma cells, luminescence (AID 1988). It counts as functional, cell-based.
A short description of assay [2]: Counterscreen for AddAB inhibitors: absorbance-based bacterial cell-based high throughput dose response assay for inhibitors of bacterial viability. [Related pubchem assays (depositor defined):AID435030, AID449728, AID449731, AID488942, AID488955, AID488956]. The class given is functional. (Counterscreens check selectivity or assay interference.)
The next assay addresses Paired box protein Pax-8 (Homo sapiens, UniProt Q06710). Put plainly: inhibitors of PAX8-driven TPO luciferase reporter, dose response, RMG-I cells, cherry-pick (AID 687027).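 Note: luciferase reporter driven by Pax8 target thyroperoxidase promoter measured by SteadyGlo luminescence.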 It counts as functional, cell-based. On the technique in general: A reporter such as luciferase makes a cellular process visible.
In assay [3] the target is T1, Tyrosine-protein phosphatase non-receptor type 22 (Homo sapiens, UniProt Q9Y2R2).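 Note: confirmatory dose-response retesting of primary uHTS hits against LYP; potency is for inhibition of phosphatase activity.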
T1 sequence (Q9Y2R2 whole entry): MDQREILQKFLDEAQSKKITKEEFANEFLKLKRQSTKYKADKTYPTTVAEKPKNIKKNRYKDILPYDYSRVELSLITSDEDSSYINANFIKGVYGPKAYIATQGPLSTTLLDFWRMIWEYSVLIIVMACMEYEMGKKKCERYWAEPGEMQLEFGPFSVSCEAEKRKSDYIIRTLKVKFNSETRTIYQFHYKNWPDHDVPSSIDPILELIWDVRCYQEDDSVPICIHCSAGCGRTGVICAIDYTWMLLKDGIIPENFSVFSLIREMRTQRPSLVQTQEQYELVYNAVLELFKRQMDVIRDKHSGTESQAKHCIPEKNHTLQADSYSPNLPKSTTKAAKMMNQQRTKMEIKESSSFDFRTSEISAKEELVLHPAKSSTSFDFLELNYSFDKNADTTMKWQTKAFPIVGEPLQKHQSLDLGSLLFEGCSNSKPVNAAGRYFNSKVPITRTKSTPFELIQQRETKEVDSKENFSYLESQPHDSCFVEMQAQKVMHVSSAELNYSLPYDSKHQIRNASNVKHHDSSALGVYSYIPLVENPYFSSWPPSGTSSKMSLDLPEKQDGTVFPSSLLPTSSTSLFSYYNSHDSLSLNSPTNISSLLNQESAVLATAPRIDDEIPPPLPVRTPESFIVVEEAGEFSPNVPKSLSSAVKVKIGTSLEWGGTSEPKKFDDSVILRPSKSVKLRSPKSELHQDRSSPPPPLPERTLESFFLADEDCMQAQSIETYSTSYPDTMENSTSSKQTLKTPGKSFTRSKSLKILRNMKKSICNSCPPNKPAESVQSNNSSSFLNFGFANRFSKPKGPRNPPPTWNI
It counts as functional.

For assay [4], the target named is 1-phosphatidylinositol 4,5-bisphosphate phosphodiesterase gamma-1 (Homo sapiens, UniProt P19174). The assay can be described thus: Counterscreen for inhibitors of phospholipase C isozymes (PLC-B3): Fluorescence-based biochemical high throughput dose response assay to identify inhibitors of phospholipase C isozymes (PLC-gamma1).
1-phosphatidylinositol 4,5-bisphosphate phosphodiesterase gamma-1, sequence (P19174 whole entry): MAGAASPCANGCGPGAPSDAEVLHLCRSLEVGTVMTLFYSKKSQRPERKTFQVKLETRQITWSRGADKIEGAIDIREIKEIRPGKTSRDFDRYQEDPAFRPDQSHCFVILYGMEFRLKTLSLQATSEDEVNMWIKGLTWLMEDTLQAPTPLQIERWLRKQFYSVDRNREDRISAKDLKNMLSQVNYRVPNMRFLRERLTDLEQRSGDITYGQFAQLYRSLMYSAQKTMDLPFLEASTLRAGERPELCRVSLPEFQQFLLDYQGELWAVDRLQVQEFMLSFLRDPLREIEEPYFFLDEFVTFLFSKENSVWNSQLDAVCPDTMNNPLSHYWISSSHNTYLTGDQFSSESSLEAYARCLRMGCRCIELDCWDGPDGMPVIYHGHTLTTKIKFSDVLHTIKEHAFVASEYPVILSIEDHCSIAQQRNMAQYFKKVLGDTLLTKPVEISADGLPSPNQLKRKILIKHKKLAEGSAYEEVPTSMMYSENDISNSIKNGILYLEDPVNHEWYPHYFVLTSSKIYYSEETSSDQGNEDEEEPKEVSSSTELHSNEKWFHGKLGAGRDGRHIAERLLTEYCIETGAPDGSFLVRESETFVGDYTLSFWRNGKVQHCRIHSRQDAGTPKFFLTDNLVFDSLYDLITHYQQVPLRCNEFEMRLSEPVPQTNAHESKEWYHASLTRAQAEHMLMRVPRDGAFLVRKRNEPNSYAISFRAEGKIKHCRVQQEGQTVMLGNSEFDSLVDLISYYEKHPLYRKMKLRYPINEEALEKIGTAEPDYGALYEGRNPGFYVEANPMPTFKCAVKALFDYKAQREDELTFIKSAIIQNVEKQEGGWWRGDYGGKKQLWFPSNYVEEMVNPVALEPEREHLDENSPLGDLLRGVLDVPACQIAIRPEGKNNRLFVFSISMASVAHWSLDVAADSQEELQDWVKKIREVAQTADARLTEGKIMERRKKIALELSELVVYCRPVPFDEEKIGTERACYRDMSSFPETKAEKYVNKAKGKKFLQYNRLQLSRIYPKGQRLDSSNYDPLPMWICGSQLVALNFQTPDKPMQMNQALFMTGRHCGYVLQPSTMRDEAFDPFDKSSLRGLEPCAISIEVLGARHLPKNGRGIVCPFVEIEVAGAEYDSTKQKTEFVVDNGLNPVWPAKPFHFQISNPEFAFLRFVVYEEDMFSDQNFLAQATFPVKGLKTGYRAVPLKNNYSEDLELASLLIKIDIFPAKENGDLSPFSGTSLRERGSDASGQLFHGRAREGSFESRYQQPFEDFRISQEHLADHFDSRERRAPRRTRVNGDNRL
Assay [5] deals with T2, Dual specificity protein phosphatase 3 (Homo sapiens, UniProt P51452). Put plainly: SAR VHR1 absorbance Assay for In Vitro dose response studies. [Related pubchem assays (depositor defined):AID1654, AID1661, AID1878, AID1992, AID2004].
T2 sequence (P51452 whole entry): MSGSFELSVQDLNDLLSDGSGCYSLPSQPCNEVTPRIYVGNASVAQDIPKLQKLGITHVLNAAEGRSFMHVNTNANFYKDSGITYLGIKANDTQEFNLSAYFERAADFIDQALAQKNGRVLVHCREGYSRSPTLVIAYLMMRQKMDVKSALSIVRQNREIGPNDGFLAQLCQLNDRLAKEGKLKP
For another assay, the system named is HeLa. Put plainly: HeLa cell cytotoxicity, dose response, cytotoxicity control, 24 h, cherry-picked samples (AID 504726).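 Note: potency for cytotoxicity as loss of luminescence signal.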 The class given is functional, cell-based. The following applies: Homo sapiens.
The target in assay [6] is Intestinal-type alkaline phosphatase (Mus musculus, UniProt P24822). The assay can be described thus: mouse intestinal alkaline phosphatase activators, dose response, biochemical, luminescence, uHTS hits (AID 488783). It counts as functional.
Intestinal-type alkaline phosphatase, sequence (P24822 whole entry): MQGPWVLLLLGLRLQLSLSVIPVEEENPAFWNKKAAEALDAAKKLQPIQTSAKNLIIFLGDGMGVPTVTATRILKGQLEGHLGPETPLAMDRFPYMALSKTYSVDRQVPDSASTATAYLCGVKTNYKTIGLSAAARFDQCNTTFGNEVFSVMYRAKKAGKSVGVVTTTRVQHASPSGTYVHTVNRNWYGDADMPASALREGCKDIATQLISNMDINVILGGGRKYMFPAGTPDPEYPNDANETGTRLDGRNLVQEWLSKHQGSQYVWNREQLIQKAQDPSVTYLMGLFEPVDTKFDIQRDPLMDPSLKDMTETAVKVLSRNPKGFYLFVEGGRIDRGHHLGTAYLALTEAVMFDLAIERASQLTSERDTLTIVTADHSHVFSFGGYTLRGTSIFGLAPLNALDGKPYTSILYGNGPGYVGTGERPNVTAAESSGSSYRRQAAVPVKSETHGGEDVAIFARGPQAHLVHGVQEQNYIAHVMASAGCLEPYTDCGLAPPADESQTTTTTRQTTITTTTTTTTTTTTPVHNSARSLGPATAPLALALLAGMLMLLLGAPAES
Assay [7] has as its target Small ubiquitin-related modifier 2 (Homo sapiens, UniProt P61956). The assay can be described thus: inhibitors of SUMO2 protein-protein interaction, dose response, selectivity assay for SUMO1 interaction inhibitor project, biochemical, FRET, human SUMO2, uHTS hits (AID 624384). It counts as functional. The following applies: read-out: IC50_Mean.
A further assay addresses Prothrombin (Bos taurus, UniProt P00735). The assay can be described thus: thrombin inhibition, dose response, biochemical, fluorescence polarization, uHTS hits (AID 602369). The class given is functional. For orientation: Fluorescence polarisation rises when a labelled molecule tumbles more slowly, as on binding a larger partner.
In assay [8] the target is T2, Dual specificity protein phosphatase 3. The assay can be described thus: SAR VHR1 Fluorescent Assay for In Vitro dose response studies Set 2. [Related pubchem assays (depositor defined):AID1654, AID1661, AID1878]. It counts as functional.
The target of assay [9] is T3, Alkaline phosphatase, tissue-nonspecific isozyme (Homo sapiens, UniProt P05186).
T3 sequence (P05186 whole entry): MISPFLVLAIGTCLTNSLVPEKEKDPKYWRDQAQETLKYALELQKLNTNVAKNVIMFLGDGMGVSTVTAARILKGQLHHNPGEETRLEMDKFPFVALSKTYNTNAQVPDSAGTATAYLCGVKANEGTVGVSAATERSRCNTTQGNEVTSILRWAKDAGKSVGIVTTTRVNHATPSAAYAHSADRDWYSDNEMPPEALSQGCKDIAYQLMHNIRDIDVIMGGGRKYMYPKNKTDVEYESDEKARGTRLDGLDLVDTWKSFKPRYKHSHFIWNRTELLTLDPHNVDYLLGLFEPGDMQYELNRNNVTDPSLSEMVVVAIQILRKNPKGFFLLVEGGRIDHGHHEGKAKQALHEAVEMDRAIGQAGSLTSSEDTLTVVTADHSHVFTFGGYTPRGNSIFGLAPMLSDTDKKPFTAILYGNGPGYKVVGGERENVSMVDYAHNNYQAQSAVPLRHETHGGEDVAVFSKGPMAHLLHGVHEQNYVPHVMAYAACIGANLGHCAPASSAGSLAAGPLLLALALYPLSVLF
Put plainly: TNAP enzyme activators, dose response, selectivity assay for mouse IAP activator project, biochemical, TNAP isozyme, mouse IAP uHTS hits (AID 488880). It counts as functional.

Assay [10] deals with T4, Sentrin-specific protease 8 (Homo sapiens, UniProt Q96LD8).
T4 sequence (Q96LD8 whole entry): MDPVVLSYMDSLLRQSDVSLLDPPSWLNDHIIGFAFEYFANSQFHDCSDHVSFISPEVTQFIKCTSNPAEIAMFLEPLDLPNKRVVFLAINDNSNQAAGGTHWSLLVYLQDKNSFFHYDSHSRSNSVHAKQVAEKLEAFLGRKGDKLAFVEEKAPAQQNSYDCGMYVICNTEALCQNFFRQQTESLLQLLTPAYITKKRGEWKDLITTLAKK
The class given is functional.

In the next assay the target is T5, Caspase-3 (Homo sapiens, UniProt P42574).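 Note: Dose-response selectivity test against caspase-3 for candidate inhibitors of sentrin-specific proteases (SENPs).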
T5 sequence (P42574 whole entry): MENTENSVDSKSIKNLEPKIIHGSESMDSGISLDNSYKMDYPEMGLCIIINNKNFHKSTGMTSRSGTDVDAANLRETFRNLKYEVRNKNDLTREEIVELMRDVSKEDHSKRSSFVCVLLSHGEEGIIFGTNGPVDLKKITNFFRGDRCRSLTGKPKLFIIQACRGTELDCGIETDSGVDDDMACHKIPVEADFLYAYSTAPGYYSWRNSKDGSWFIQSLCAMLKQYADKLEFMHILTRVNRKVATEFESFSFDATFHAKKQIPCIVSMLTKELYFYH
The class given is functional.

The target in assay [11] is T4, Sentrin-specific protease 8. The class given is functional. The source holds these as a separate data set.

Paired box protein Pax-8, sequence (Q06710 whole entry): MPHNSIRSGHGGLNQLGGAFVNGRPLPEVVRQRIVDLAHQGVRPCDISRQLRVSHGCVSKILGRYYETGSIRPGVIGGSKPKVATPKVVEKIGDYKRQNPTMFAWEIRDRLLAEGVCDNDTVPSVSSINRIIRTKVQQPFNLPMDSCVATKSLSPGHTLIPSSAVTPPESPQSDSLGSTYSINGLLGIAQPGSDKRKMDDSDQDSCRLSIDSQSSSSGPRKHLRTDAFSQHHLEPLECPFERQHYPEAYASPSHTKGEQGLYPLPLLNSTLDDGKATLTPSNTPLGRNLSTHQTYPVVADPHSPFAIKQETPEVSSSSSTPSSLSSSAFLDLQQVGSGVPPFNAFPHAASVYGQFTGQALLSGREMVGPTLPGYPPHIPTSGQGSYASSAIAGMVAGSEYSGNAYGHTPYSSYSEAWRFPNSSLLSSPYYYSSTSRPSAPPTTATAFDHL
Small ubiquitin-related modifier 2, sequence (P61956 whole entry): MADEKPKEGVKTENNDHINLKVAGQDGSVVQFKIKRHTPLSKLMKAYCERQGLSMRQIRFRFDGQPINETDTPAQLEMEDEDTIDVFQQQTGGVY

For orientation: EC50 means the concentration needed to bring the measured effect to its halfway point. As a reminder, the AC50 is the midpoint of the concentration-response curve, whichever way the signal moves. In the case of `O=C1c2ccccc2C(=O)c2[nH]c(O)nc21`, the concentration giving a half-maximal response (EC50) in assay [1] was 4.26 µM (active). The IC50 in assay [2] was > 119 µM (inactive). Besides, on Paired box protein Pax-8, the AC50 is 5.72 µM (active).

As to `N#Cc1c(N2CCCC2)nc(N)c2c(N)nc(N3CCCC3)cc12`, the IC50 in assay [3] was > 79.4 µM (inactive).

For `COC(=O)c1cc(C)nc2c1C(=O)C(=O)C=C2N1CCOCC1`, the IC50 in assay [4] is 13.7 µM (inactive).

On to `NS(=O)(=O)c1cc(C(=O)NC2CCSc3ccccc32)ccc1Cl` (stereo not given), for which the IC50 is 0.121 µM (active) in assay [5]; 1.75 µM (active) in [7]; 24.5 µM (active) on Prothrombin; > 100 µM (inactive) and 82.8 nM (active) in [8]. For the same compound, the AC50 in the assay on HeLa is > 350 µM (inactive). For the same compound, the EC50 in assay [6] is 5.57 µM (active); in assay [9], 68.1 µM (active).

Regarding `CCOC(=O)C1=C(C)OC2(O)c3ccccc3C(=O)C12O` (stereo not given), the IC50 was 0.428 µM (active) in assay [10], > 100 µM (inactive) on Caspase-3 and 5.38 µM (active) in assay [11].

The values are drawn from ChEMBL document CHEMBL1201862, “PubChem BioAssay data set” (2004).
